{"source": "patent US20080311092A1", "about": "“Murine Stem Cells and Applications Thereof” (priority 2005, published 2008)", "key": {"[1]": {"tested_on": "B cell acute lymphoblastic leukaemia (B-ALL)", "settings": "BCR-ABLp210 mouse model, not stem-cell targeted; cited from earlier work"}, "human CML": {"tested_on": "human CML", "settings": "cited from earlier work; for Outcome of treatment in human CML: humans"}, "[2]": {"tested_on": "diffuse large B-cell lymphoma", "experiment": "Doxorubicin treatment of Sca1/BCL6 cancer stem cell model mice, cell counting", "assay_type": "in vivo, mouse", "procedure": "DXR (doxorubicin) was dosed at 7 mg/kg. […] Drugs were dissolved in water and delivered intravenously. Water was used as placebo."}, "lung cancer": {"tested_on": "lung cancer", "experiment": "Doxorubicin treatment of Sca1/hKRAS CSC model lung cancer mice, survival study", "assay_type": "in vivo, mouse", "settings": "for Outcome of treatment in the lung cancer CSC mouse model: Sca1/hKRAS mice", "procedure": "DXR (doxorubicin) was dosed at 7 mg/kg. The administration scheme was every 7th day, 3 times—q7dx3—for a duration of 4-5 weeks. Drugs were dissolved in water and delivered intravenously. Water was used as placebo."}, "human lymphomas": {"tested_on": "human lymphomas", "settings": "humans; cited from earlier work"}, "human lung cancer": {"tested_on": "human lung cancer", "settings": "humans; cited from earlier work"}, "CSC that express BCR-ABL": {"tested_on": "CSC that express BCR-ABL", "experiment": "Ganciclovir treatment of PLy6-HSVtk-IRES-BCRABLp210 (Sca1-IRES-HVTK-BCR-ABL p210) mice", "assay_type": "in vivo, mouse", "settings": "for Disappearance of cancers / tumour burden on GCV treatment: PLy6-HSVtk-IRES-BCRABLp210 mice, 100% with tumours at start, 60 mice injected daily with GCV (100 mg/kg/day i.p.)", "procedure": "PLy6-HSVtk-IRES-BCRABLp210 mice were used to test the effectiveness of GCV-induced cell death in CSC that express BCR-ABL. GCV, after preliminary testing, was administered at a dose of 100 mg/kg/day by i.p. injection for 14 days. This dose has been reported to kill cells expressing HSV-tk in transgenic mice (Bush TG. Cell 1998, 93: 189-201). Dosing started when the mice were leukaemic. A control group was given injections of normal saline.\n(§1) Ganciclovir: stock solutions were prepared following the SIGMA indications. The regimen was 100 mg/kg/day by intraperitoneal injection for 14 days. The placebo was an equal volume of diluent water/normal saline.\n30 mice were used as a control and were subjected daily with saline solution whereas the 60 remaining mice were injected daily with GCV as described in method section.\n(§2) The mice were treated either with ganciclovir (GCV) or with placebo, as described under materials and methods. For each mouse model, 60 mice were injected daily with ganciclovir, and 30 mice were used as a control and injected daily with saline (placebo)."}, "Sca1-positive cells": {"tested_on": "Sca1-positive cells", "experiment": "Ganciclovir treatment of Sca1-BCL6-IRES-HVTK mice", "assay_type": "in vivo, mouse", "procedure": "as §1\nCSC mouse cancer models (Sca1-HVTK-IRES-BCR-ABLp210 and Sca1-BCL6-IRES-HVTK mice) were used to address the question of whether the selective ablation of Sca1-positive cells is effective in the therapy of cancer.\nas §2"}}, "note": "“Also recorded” adds a separate entry of the source. Read-outs that look alike come from different tables or passages of the source.", "data": [{"smiles": "Cc1ccc(NC(=O)c2ccc(CN3CCN(C)CC3)cc2)cc1Nc1nccc(-c2cccnc2)n1", "note": "[Gleevec™, imatinib]", "values": [{"measurement": "Outcome of treatment in conventional mouse B-ALL model", "setting": "[1]", "value": "cures the cancer"}, {"measurement": "Effect on leukaemic stem cells in humans", "setting": "human CML; Michor F et al. Nature (2005)", "value": "does not deplete leukaemic stem cells"}, {"measurement": "Outcome of treatment in human CML", "setting": "human CML", "value": "only gives symptomatic relief; also recorded: typically relapse"}, {"measurement": "Outcome of treatment in human CML", "setting": "human CML; listed as Gleevec", "value": "provides symptomatic relief"}]}, {"smiles": "COc1cccc2c1C(=O)c1c(O)c3c(c(O)c1C2=O)C[C@@](O)(C(=O)CO)C[C@@H]3O[C@H]1C[C@H](N)[C@H](O)[C@H](C)O1", "note": "[doxorubicin]", "values": [{"measurement": "Outcome of treatment of diffuse large B-cell lymphoma in CSC mice", "setting": "[2]; Sca1/BCL6 CSC mouse model", "value": "ineffective; also recorded: unsuccessful"}, {"measurement": "Change in number of B cells", "setting": "[2]; Sca1/BCL6 mice, 3-5 month course of doxorubicin treatment", "value": "decreased or increased slightly"}, {"measurement": "Factor by which the number of CSC increased", "setting": "[2]; Sca1/BCL6 mice, over three months of doxorubicin treatment", "value": "7-8"}, {"measurement": "Survival: none of the treated mice survived longer than", "setting": "lung cancer; CSC model lung cancer mice, doxorubicin 7 mg/kg i.v. q7dx3", "value": "≤ 20", "unit": "weeks"}, {"measurement": "Outcome of treatment in the lung cancer CSC mouse model", "setting": "lung cancer", "value": "ineffective; also recorded: unsuccessful"}, {"measurement": "Outcome of treatment in the lung cancer CSC mouse model", "setting": "lung cancer; listed as Doxorubicin", "value": "also unsuccessful"}, {"measurement": "Outcome of treatment in human lymphoma / DLBCL patients", "setting": "human lymphomas", "value": "virtually all human lymphoma patients treated with doxorubicin relapse"}, {"measurement": "Outcome of treatment of human lung cancer", "setting": "human lung cancer", "value": "unsuccessful"}]}, {"smiles": "Nc1nc(O)c2ncn(COC(CO)CO)c2n1", "note": "[ganciclovir]", "values": [{"measurement": "Tumour recurrence during further monitoring", "setting": "CSC that express BCR-ABL; 8 weeks of further monitoring", "value": "did not recur"}, {"measurement": "Time of treatment after which tumours disappeared completely", "setting": "CSC that express BCR-ABL; 60 Sca1-IRES-HVTK-BCR-ABL p210 mice treated with ganciclovir", "value": 8, "unit": "weeks"}, {"measurement": "Disappearance of cancers / tumour burden on GCV treatment", "setting": "CSC that express BCR-ABL; listed as GCV", "value": "cancers disappeared completely"}, {"measurement": "Disappearance of cancers / tumour burden on GCV treatment", "setting": "CSC that express BCR-ABL; listed as Gancyclovir", "value": "complete reduction of tumour burden"}, {"measurement": "Tumour recurrence (CML and solid tumours) after GCV treatment", "setting": "CSC that express BCR-ABL; additional 3 months of observation after cancers disappeared", "value": "no tumour recurrence was observed"}, {"measurement": "Time to elimination of all tumours", "setting": "Sca1-positive cells; Sca1-BCL6-IRES-HVTK mice, 60 mice injected daily with ganciclovir", "value": 10, "unit": "weeks"}, {"measurement": "Tumour recurrence during additional monitoring", "setting": "Sca1-positive cells; additional 11 weeks of monitoring", "value": "no tumour recurrence was observed"}]}]}
